Assays:
BRD4-BD1 (44-164) = molecular target: T1, BRD4-BD1 (44-164) (Homo sapiens, UniProt O60885); assay: Alphascreen binding assay BRD4-BD1 (BRD4 biochemical inhibitory activity); conditions: read-out: Biochemical activity (IC50 μM) BRD4(1) H4
T1 construct: BRD4-BD1 (44-164); made in house; host or cells: E. coli BL21-CodonPlus (DE3)
Procedure: Binding of compounds of formula (I) with bromodomain 2, 3 4 was assessed using Alphascreen binding assay. The inhibition of the interaction between bromodomain and its acetylated target protein (Filippakopoulos P et al. 2012) was measured quantitatively using recombinant BRD proteins, an acetylated Histone 4 peptide and AlphaScreen™ technology. In absence of inhibition the BRD protein bound to AlphaScreen™ nickel chelate acceptor beads can interact with the acetylated Histone 4 peptide which is immobilized by the AlphaScreen™ Streptavidin coated beads. This interaction brings donor and acceptor beads in proximity. The close proximity allows the singlet oxygen produced by laser excitation of the donor beads to reach the acceptor beads and generate a luminescence signal. BRD inhibitors result in a decrease in the proximity signal through an inhibition of the BRD—acetylated peptide interaction.
Recombinant human bromodomains containing the N-terminal bromodomain (BRD2-BD1 (71-194), BRD3-BD1 (24-144) and BRD4-BD1 (44-164)) or dual bromodomains (BRD4-BD12 (1-477), BRD4-BD12 (1-472)) were prepared and purified as described in protein expression and purification session. The peptide is human Histone H41-21K5AcK8AcK12AcK16Ac-Biotin (Anaspec Calif., USA).
Protocol for BRD2, BRD3 and BRD4 assay: All components are prepared in buffer composed of 50 mM HEPES pH 7.5, 100 mM NaCl, 0.01% bovine serum albumin (“BSA”), 0.01% Triton X-100, 2 mM dithiothreitol (“DTT”). 7 μL of Bromodomain protein and 7 μL of peptide are added to wells containing 1 μL of various concentrations of test compounds of formula (I) or DMSO vehicle in an Alphaplate (PerkinElmer Ga., USA) and incubated for 1 hour at room temperature. 4 μL donor and acceptor bead mixture is then added with final concentrations of 7.5 μg/ml. 30 minutes after bead addition, Alpha signal is read on the Envision spectrometer ([…]Ex 680 nm, […]Em 520-620 nm). Final concentrations of bromodomain proteins and peptide are as shown below.
All data was normalized to the mean of 16 high and 16 low control wells on each plate. A four parameter curve fit of the following formula was then applied: Y=a+(b−a)/(1+(x/c)^d) Where ‘a’ is the minimum, ‘b’ is the maximum, ‘c’ is the pIC50 and ‘d’ is the Hill slope. Protein Expression and Purification
Recombinant human bromodomains containing the N-terminal bromodomain (BRD2-BD1 (71-194), BRD3-BD1 (24-144) and BRD4-BD1 (44-164)) or dual bromodomains (BRD4-BD12 (1-477), BRD4-BD12 (1-472)) were expressed in E. coli cells (in a modified pET vector) with an N-terminal six-His tag and purified using a combination of both IMAC (Ni-affinity) and size exclusion chromatography steps.
Recombinant BRD proteins were expressed using the E. coli strain BL21-CodonPlus (DE3) (Agilent Technologies Calif., USA). Cells were grown in Terrific Broth (TB) media to an OD600 of 1.2 at 37° C. at which temperature was reduced to 25° C., protein was induced with 1.0 mM ispropyl-β-D-thiogalactopyranoside (“IPTG”) for 12-18 hours and harvested by centrifugation at 8000×g for 20 minutes. Cells were re-suspended in 0.1M K2PO4 pH 8.0, 250 mM NaCl, 10% Glycerol, 0.75% NP-40, 25 mM Imidazole, 5 mM beta-mercaptoethanol (“BME”) with 0.2 mg/ml Lysosyme, 2.0 mM phenylmethanesulfonyl fluoride (“PMSF”), 25 μg/ml DNAse I, incubated on ice for 30 minutes and lyzed with a cell disruptor (MicroFluidics Mass., USA). The lysate was clarified by centrifugation at 20,000×g for 2 hours. The protein was captured with Ni-NTA resin (Life Technologies, USA). Contaminating proteins were washed off with 25 mM Tris-HCl pH 8.3, 250 mM NaCl, 12% Glycerol and 50 mM Imidazole. Following 3× wash steps, protein was eluted step wise using a 50 mM HEPES pH 7.5, 500 mM NaCl and 400 mM Imidazole. The protein was further purified using Gel Filtration column 26/600 Superdex 200 (GE Biosciences NJ, USA) in 50 mM HEPES pH 7.5, 250 mM NaCl. The protein was aliquoted and flash-frozen in liquid Nitrogen. […]

MV-4-11 = assay: Oncology cell growth assay MV-4-11 (CellTiter Glo, 72 hours); assay type: cell-based; conditions: Homo sapiens, MV4-11, 72 h; MV-4-11 cell growth inhibitory activity, 3d
Outline: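 Growth read by CellTiter Glo luminescence after 72 h compound exposure of MV-4-11 AML cells (MLL-AF4), using 8-point 1:3 series to 10 μM final in 0.2% DMSO. Data normalized to DMSO wells, four-parameter fit yields pIC50.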

bromodomain = assay: Bromodomain cell assays of Example 40 (at least one of them); assay type: cell-based; conditions: in at least one of the bromodomain cell assays described in Example 40
Outline: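 Growth inhibition: 3000 MV-4-11, MOLM-13, MM.1S or neuroblastoma cells/well got an 8-point 1:3 series from 10 μM top (0.2% DMSO) for 72 h, then CellTiter-Glo luminescence. Myc reporter: MV-4-11 with E-box firefly luciferase, 24 h exposure, One-Glo luminescence plus CellTiter-Fluo cell count. pIC50 from four-parameter fit.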

SMILES	IC50 (BRD4-BD1 (44-164)) [µM]	IC50 (MV-4-11) [µM]	IC50 (bromodomain) [µM]
Cc1noc(C)c1-c1cnc2ccn(S(=O)(=O)c3ccc(F)cc3)c2c1 [P-0052, 4-[1-(4-fluorophenyl)sulfonylpyrrolo[3,2-b]pyridin-6-yl]-3,5-dimethyl-isoxazole]	1 to 10	1 to 10	< 10
Cc1noc(C)c1-c1cnc2ccn(S(=O)(=O)c3ccc(Cl)cc3)c2c1 [P-0053, 4-[1-(4-chlorophenyl)sulfonylpyrrolo[3,2-b]pyridin-6-yl]-3,5-dimethyl-isoxazole]	1 to 10	1 to 10	< 10
Cc1noc(C)c1-c1cnc2ccn(S(=O)(=O)c3cnn(C(F)F)c3)c2c1 [P-0054, 4-[1-[1-(difluoromethyl)pyrazol-4-yl]sulfonylpyrrolo[3,2-b]pyridin-6-yl]-3,5-dimethyl-isoxazole]	1 to 10	1 to 10	< 10
Cc1noc(C)c1-c1cnc2ccn(S(=O)(=O)c3cccs3)c2c1 [P-0055, 3,5-dimethyl-4-[1-(2-thienylsulfonyl)pyrrolo [3,2-b]pyridin-6-yl]isoxazole]	1 to 10	1 to 10	< 10
Cc1noc(C)c1-c1cnc2ccn(S(=O)(=O)c3cccc(F)c3)c2c1 [P-0056, 4-[1-(3-fluorophenyl)sulfonylpyrrolo[3,2-b]pyridin-6-yl]-3,5-dimethyl-isoxazole]	1 to 10	1 to 10	< 10
Cc1noc(C)c1-c1cnc2ccn(S(=O)(=O)c3cccc(Cl)c3)c2c1 [P-0057, 4-[1-(3-chlorophenyl)sulfonylpyrrolo[3,2-b]pyridin-6-yl]-3,5-dimethyl-isoxazole]	1 to 10	≤ 1	< 10
Cc1nn(C(F)F)cc1S(=O)(=O)n1ccc2ncc(-c3c(C)noc3C)cc21 [P-0058, 4-[1-[1-(difluoromethyl)-3-methyl-pyrazol-4-yl]sulfonylpyrrolo[3,2-b]pyridin-6-yl]-3,5-dimethyl-isoxazole]	1 to 10	1 to 10	< 10
Cc1csc(S(=O)(=O)n2ccc3ncc(-c4c(C)noc4C)cc32)c1 [P-0059, 3,5-dimethyl-4-[1-[(4-methyl-2-thienyl)sulfonyl]pyrrolo[3,2-b]pyridin-6-yl]isoxazole]	1 to 10	1 to 10	< 10
Cc1noc(C)c1-c1cnc2ccn(S(=O)(=O)c3cccc(OC(F)F)c3)c2c1 [P-0061, 4-[1-[3-(difluoromethoxy)phenyl]sulfonylpyrrolo [3,2-b]pyridin-6-yl]-3,5-dimethyl-isoxazole]	1 to 10	1 to 10	< 10
[2H]C([2H])([2H])n1cc(CC2CCC(F)(F)CC2)c2cc(-c3c(C)noc3C)cnc21 [P-0079, 4-[3-[(4,4-difluorocyclohexyl)methyl]-1-(trideuteriomethyl)pyrrolo[2,3-b]pyridin-5-yl]-3,5-dimethyl-isoxazole]	≤ 1	1 to 10	< 10
[2H]C([2H])([2H])n1cc(C(OC)C2CCC(F)(F)CC2)c2cc(-c3c(C)noc3C)cnc21 (stereo not drawn) [P-0080, 4-[3-[(4,4-difluorocyclohexyl)-methoxy-methyl]-1-(trideuteriomethyl)pyrrolo[2,3-b]pyridin-5-yl]-3,5-dimethyl-isoxazole]	≤ 1	≤ 1	< 10
Cc1noc(C)c1-c1cnc2c(-c3cccnc3)c[nH]c2c1 [P-0083, 3,5-dimethyl-4-[3-(3-pyridyl)-1H-pyrrolo[3,2-b]pyridin-6-yl]isoxazole]	1 to 10	1 to 10	< 10
Cc1noc(C)c1-c1cnc2[nH]cc(C(=O)C3CCSCC3)c2c1 [P-0091, [5-(3,5-dimethylisoxazol-4-yl)-1H-pyrrolo[2,3-b]pyridin-3-yl]-tetrahydrothiopyran-4-yl-methanone]	≤ 1	1 to 10	< 10
[2H]C([2H])([2H])n1cc(CC2CCN(C(=O)OCc3ccccc3)CC2)c2cc(-c3c(C)noc3C)cnc21 [P-0092, benzyl 4-[[5-(3,5-dimethylisoxazol-4-yl)-1-(trideuteriomethyl)pyrrolo[2,3-b]pyridin-3-yl]methyl]piperidine-1-carboxylate]	≤ 1	1 to 10	< 10
Cc1noc(C)c1-c1cnc2[nH]cc(C=C3CC[S+]([O-])CC3)c2c1 (stereo not drawn) [P-0093, 4-[[5-(3,5-dimethylisoxazol-4-yl)-1H-pyrrolo[2,3-b]pyridin-3-yl]methylene]thiane 1-oxide]	1 to 10	1 to 10	< 10
Cc1noc(C)c1-c1cnc2c(c1)c(C=C1CCS(=O)(=O)CC1)cn2S(=O)(=O)c1ccccc1 [P-0097, 4-[[1-(benzenesulfonyl)-5-(3,5-dimethylisoxazol-4-yl)pyrrolo[2,3-b]pyridin-3-yl]methylene]thiane 1,1-dioxide]	1 to 10	1 to 10	< 10
Cc1noc(C)c1-c1cnc2[nH]cc(C=C3CCS(=O)(=O)CC3)c2c1 [P-0099, 4-[[5-(3,5-dimethylisoxazol-4-yl)-1H-pyrrolo[2,3-b]pyridin-3-yl]methylene]thiane 1,1-dioxide]	1 to 10	1 to 10	< 10
Cc1noc(C)c1-c1cnc2c(c1)c(CC1CC3CCC1C3)cn2C (stereo not drawn) [P-0100, 3,5-dimethyl-4-[1-methyl-3-(norbornan-2-ylmethyl)pyrrolo[2,3-b]pyridin-5-yl]isoxazole]	1 to 10	1 to 10	< 10
Cc1noc(C)c1-c1cnc2c(-c3cnc(C4CC4)nc3)cn(S(=O)(=O)c3ccccc3)c2c1 [P-0102, 4-[1-(benzenesulfonyl)-3-(2-cyclopropylpyrimidin-5-yl)pyrrolo[3,2-b]pyridin-6-yl]-3,5-dimethyl-isoxazole]	1 to 10	1 to 10	< 10
CCCCC(O)(c1cn(C)c2ncc(-c3c(C)noc3C)cc12)C1CCC(F)(F)CC1 (stereo not drawn) [P-0108, 1-(4,4-difluorocyclohexyl)-1-[5-(3,5-dimethylisoxazol-4-yl)-1-methyl-pyrrolo[2,3-b]pyridin-3-yl]pentan-1-ol]	≤ 1	≤ 1	< 10
CCCCC(c1cn(C)c2ncc(-c3c(C)noc3C)cc12)C1CCC(F)(F)CC1 (stereo not drawn) [P-0109, 4-[3-[1-(4,4-difluorocyclohexyl)pentyl]-1-methyl-pyrrolo[2,3-b]pyridin-5-yl]-3,5-dimethyl-isoxazole]	≤ 1	1 to 10	< 10

Reference: US10501460B2, “Heterocyclic compounds and uses thereof” (Plexxikon Inc., priority 2013, dated 2019)
